{"source": "paper PMC4917279", "about": "(Journal of Medicinal Chemistry, 2016)", "assay_in_all_cases": "KINOMEscan", "type_in_all_cases": "binding", "conditions_in_all_cases": "read-out: %Ctrl @ 1000 nM", "key": {"[1]": {"molecular_target": "T1, ABL1(Q252H)-phosphorylated (Homo sapiens, UniProt P00519, Q252H)", "T1 construct": "purchased DiscoveRx (KINOMEscan service)"}, "AMPK-alpha1": {"molecular_target": "T2, AMPK-alpha1 (Homo sapiens, UniProt Q13131)", "T2 construct": "purchased DiscoveRx KINOMEscan"}, "ASK1": {"molecular_target": "T3, ASK1 (Homo sapiens, UniProt Q99683)", "T3 construct": "purchased DiscoveRx KINOMEscan"}, "BRAF": {"molecular_target": "T4, BRAF (Homo sapiens, UniProt P15056)", "T4 construct": "purchased DiscoveRx KINOMEscan"}, "BRSK2": {"molecular_target": "T5, BRSK2 (Homo sapiens, UniProt Q8IWQ3)", "T5 construct": "purchased DiscoveRx KINOMEscan"}, "CDC2L1": {"molecular_target": "T6, CDC2L1 (Homo sapiens, UniProt P21127)", "T6 construct": "purchased DiscoveRx KINOMEscan"}, "CDKL5": {"molecular_target": "T7, CDKL5 (Homo sapiens, UniProt O76039)", "T7 construct": "purchased DiscoveRx KINOMEscan"}, "CIT": {"molecular_target": "T8, CIT (Homo sapiens, UniProt O14578)", "T8 construct": "purchased DiscoveRx KINOMEscan"}, "CLK3": {"molecular_target": "T9, CLK3 (Homo sapiens, UniProt P49761)", "T9 construct": "purchased DiscoveRx KINOMEscan"}, "CSNK2A2": {"molecular_target": "T10, CSNK2A2 (Homo sapiens, UniProt P19784)", "T10 construct": "purchased DiscoveRx KINOMEscan"}, "DAPK3": {"molecular_target": "T11, DAPK3 (Homo sapiens, UniProt O43293)", "T11 construct": "purchased DiscoveRx KINOMEscan"}, "DYRK1A": {"molecular_target": "T12, DYRK1A (Homo sapiens, UniProt Q13627)", "T12 construct": "purchased DiscoveRx KINOMEscan"}, "EGFR(L858R)": {"molecular_target": "T13, EGFR(L858R) (Homo sapiens, UniProt P00533, L858R)", "T13 construct": "purchased DiscoveRx KINOMEscan", "T13 sequence (P00533 25-1210 L858R)": "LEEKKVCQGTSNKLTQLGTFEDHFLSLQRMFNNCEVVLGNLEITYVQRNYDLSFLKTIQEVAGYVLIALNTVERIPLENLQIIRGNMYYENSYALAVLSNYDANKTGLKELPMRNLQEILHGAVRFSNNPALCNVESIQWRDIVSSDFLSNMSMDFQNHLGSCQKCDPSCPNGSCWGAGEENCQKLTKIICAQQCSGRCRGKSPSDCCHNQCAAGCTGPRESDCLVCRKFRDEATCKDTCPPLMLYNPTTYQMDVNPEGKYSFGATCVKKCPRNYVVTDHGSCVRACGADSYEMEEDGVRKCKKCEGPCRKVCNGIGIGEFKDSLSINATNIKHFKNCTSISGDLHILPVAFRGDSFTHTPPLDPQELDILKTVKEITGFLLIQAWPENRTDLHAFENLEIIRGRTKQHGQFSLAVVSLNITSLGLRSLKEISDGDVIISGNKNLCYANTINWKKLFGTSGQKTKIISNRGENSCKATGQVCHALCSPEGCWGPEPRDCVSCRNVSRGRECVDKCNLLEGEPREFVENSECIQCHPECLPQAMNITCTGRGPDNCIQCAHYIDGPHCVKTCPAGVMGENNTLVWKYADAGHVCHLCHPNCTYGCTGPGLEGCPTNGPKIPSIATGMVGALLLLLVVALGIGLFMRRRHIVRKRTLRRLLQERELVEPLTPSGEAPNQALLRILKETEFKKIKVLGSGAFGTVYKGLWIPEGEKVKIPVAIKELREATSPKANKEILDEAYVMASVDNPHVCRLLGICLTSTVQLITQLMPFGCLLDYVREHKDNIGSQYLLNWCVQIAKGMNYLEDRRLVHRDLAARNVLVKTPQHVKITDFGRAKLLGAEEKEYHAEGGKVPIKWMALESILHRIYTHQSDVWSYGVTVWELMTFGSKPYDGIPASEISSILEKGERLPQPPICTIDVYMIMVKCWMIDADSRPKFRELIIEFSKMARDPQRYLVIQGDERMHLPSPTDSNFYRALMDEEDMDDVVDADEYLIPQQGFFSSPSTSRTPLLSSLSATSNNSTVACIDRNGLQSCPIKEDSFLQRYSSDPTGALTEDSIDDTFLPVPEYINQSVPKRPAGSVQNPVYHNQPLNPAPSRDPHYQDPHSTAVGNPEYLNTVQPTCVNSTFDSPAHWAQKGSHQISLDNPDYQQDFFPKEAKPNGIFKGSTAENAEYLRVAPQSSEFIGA"}, "EGFR(S752-I759del)": {"molecular_target": "T14, EGFR(S752-I759del) (Homo sapiens, UniProt P00533, DEL752-759)", "T14 construct": "purchased DiscoveRx KINOMEscan", "T14 sequence (P00533 with tags, fused parts or gaps DEL752-759 limits assumed)": "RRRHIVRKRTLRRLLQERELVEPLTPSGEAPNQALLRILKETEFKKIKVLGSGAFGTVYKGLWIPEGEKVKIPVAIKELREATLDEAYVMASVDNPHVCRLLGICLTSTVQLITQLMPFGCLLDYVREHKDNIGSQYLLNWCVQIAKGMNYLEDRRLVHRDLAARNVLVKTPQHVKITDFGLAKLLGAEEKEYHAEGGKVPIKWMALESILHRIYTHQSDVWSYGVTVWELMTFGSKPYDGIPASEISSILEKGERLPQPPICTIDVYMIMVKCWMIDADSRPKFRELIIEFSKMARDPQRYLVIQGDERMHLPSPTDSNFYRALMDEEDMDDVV"}, "EIF2AK1": {"molecular_target": "T15, EIF2AK1 (Homo sapiens, UniProt Q9BQI3)", "T15 construct": "purchased DiscoveRx KINOMEscan"}, "EPHA1": {"molecular_target": "T16, EPHA1 (Homo sapiens, UniProt P21709)", "T16 construct": "purchased DiscoveRx KINOMEscan"}, "FER": {"molecular_target": "T17, FER (Homo sapiens, UniProt P16591)", "T17 construct": "purchased DiscoveRx KINOMEscan"}, "HIPK2": {"molecular_target": "T18, HIPK2 (Homo sapiens, UniProt Q9H2X6)", "T18 construct": "purchased DiscoveRx KINOMEscan"}, "IKK-alpha": {"molecular_target": "T19, IKK-alpha (Homo sapiens, UniProt O15111)", "T19 construct": "purchased DiscoveRx KINOMEscan"}, "IKK-beta": {"molecular_target": "T20, IKK-beta (Homo sapiens, UniProt O14920)", "T20 construct": "purchased DiscoveRx KINOMEscan"}, "IKK-epsilon": {"molecular_target": "T21, IKK-epsilon (Homo sapiens, UniProt Q14164)", "T21 construct": "purchased DiscoveRx KINOMEscan"}, "KIT(D816V)": {"molecular_target": "T22, KIT(D816V) (Homo sapiens, UniProt P10721, D816V)", "T22 construct": "purchased DiscoveRx KINOMEscan", "T22 sequence (P10721 26-976 D816V)": "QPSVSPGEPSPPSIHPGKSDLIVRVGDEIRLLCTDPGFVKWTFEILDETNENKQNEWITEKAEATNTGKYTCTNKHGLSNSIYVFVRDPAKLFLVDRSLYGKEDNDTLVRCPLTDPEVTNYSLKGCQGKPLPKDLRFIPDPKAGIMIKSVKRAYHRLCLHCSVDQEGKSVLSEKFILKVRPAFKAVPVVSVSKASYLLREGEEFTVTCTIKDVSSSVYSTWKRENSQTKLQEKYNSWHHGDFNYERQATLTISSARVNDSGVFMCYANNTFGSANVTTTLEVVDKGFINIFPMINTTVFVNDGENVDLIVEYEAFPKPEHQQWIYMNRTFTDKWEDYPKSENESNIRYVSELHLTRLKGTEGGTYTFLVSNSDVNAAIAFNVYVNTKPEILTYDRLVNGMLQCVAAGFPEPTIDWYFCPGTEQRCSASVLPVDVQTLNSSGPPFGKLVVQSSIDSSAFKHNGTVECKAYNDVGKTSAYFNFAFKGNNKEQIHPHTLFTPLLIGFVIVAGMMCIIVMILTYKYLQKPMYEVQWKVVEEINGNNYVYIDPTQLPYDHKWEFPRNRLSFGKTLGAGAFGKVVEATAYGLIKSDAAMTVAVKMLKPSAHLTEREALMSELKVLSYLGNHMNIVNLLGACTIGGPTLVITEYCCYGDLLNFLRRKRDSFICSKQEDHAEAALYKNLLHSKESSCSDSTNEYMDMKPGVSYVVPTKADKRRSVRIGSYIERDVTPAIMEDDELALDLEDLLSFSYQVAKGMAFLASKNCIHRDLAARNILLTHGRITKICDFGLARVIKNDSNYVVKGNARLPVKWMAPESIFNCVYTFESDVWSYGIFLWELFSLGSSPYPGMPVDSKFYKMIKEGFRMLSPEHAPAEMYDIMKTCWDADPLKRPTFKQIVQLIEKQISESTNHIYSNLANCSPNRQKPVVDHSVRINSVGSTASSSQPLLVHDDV"}, "KIT-autoinhibited": {"molecular_target": "T23, KIT-autoinhibited (Homo sapiens, UniProt P10721)", "T23 construct": "purchased DiscoveRx KINOMEscan", "T23 sequence (P10721 26-976)": "as the sequence (P10721 26-976 D816V) above, with V791D counted along it"}, "LRRK2": {"molecular_target": "T24, LRRK2 (Homo sapiens, UniProt Q5S007)", "T24 construct": "purchased DiscoveRx KINOMEscan"}, "MAP4K2": {"molecular_target": "T25, MAP4K2 (Homo sapiens, UniProt Q12851)", "T25 construct": "purchased DiscoveRx KINOMEscan"}, "MAP4K4": {"molecular_target": "T26, MAP4K4 (Homo sapiens, UniProt O95819)", "T26 construct": "purchased DiscoveRx KINOMEscan"}, "MKK7": {"molecular_target": "T27, MKK7 (Homo sapiens, UniProt O14733)", "T27 construct": "purchased DiscoveRx KINOMEscan"}, "MKNK1": {"molecular_target": "T28, MKNK1 (Homo sapiens, UniProt Q9BUB5)", "T28 construct": "purchased DiscoveRx KINOMEscan"}, "MST2": {"molecular_target": "T29, MST2 (Homo sapiens, UniProt Q13188)", "T29 construct": "purchased DiscoveRx KINOMEscan"}, "MTOR": {"molecular_target": "T30, MTOR (Homo sapiens, UniProt P42345)", "T30 construct": "purchased DiscoveRx KINOMEscan"}, "NDR2": {"molecular_target": "T31, NDR2 (Homo sapiens, UniProt Q9Y2H1)", "T31 construct": "purchased DiscoveRx KINOMEscan"}, "PDGFRA": {"molecular_target": "T32, PDGFRA (Homo sapiens, UniProt P16234)", "T32 construct": "purchased DiscoveRx KINOMEscan", "T32 sequence (P16234 24-1089)": "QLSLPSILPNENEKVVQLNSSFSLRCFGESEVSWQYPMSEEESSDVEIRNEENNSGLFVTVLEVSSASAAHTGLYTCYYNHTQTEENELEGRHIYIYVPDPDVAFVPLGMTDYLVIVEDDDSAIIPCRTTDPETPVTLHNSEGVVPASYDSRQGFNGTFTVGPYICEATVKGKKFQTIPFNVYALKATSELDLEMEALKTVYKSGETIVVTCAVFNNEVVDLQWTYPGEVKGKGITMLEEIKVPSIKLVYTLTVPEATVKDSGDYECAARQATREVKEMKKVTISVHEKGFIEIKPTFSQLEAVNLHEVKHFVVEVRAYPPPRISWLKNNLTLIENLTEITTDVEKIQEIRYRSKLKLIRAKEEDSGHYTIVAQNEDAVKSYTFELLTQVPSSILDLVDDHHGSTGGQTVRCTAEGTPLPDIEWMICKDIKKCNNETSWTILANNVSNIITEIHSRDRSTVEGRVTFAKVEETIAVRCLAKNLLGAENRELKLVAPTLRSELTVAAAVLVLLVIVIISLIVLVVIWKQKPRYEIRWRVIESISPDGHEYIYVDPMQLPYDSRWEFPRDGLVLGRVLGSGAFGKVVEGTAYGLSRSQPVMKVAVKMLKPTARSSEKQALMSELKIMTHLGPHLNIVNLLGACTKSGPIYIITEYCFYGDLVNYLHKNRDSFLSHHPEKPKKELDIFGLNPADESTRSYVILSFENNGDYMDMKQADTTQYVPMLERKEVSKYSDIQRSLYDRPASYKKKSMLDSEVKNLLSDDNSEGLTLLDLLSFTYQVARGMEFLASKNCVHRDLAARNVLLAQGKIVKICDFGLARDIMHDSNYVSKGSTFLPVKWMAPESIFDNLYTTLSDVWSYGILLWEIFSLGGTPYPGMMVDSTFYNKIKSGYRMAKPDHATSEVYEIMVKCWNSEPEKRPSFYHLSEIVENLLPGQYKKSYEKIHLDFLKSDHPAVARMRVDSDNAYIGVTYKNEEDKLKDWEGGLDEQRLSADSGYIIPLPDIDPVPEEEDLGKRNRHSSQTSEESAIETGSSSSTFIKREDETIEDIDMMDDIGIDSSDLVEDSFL"}, "PIK3CA(E542K)": {"molecular_target": "T33, PIK3CA(E542K) (Homo sapiens, UniProt P42336, E542K)", "T33 construct": "purchased DiscoveRx KINOMEscan"}, "PIK3CD": {"molecular_target": "T34, PIK3CD (Homo sapiens, UniProt O00329)", "T34 construct": "purchased DiscoveRx KINOMEscan"}, "PIM1": {"molecular_target": "T35, PIM1 (Homo sapiens, UniProt P11309)", "T35 construct": "purchased DiscoveRx KINOMEscan"}, "PIP5K2C": {"molecular_target": "T36, PIP5K2C (Homo sapiens, UniProt Q8TBX8)", "T36 construct": "purchased DiscoveRx KINOMEscan"}, "ROCK1": {"molecular_target": "T37, ROCK1 (Homo sapiens, UniProt Q13464)", "T37 construct": "purchased DiscoveRx KINOMEscan"}, "ROCK2": {"molecular_target": "T38, ROCK2 (Homo sapiens, UniProt O75116)", "T38 construct": "purchased DiscoveRx KINOMEscan"}, "SGK2": {"molecular_target": "T39, SGK2 (Homo sapiens, UniProt Q9HBY8)", "T39 construct": "purchased DiscoveRx KINOMEscan"}, "TGFBR1": {"molecular_target": "T40, TGFBR1 (Homo sapiens, UniProt P36897)", "T40 construct": "purchased DiscoveRx KINOMEscan", "T40 sequence (P36897 34-503)": "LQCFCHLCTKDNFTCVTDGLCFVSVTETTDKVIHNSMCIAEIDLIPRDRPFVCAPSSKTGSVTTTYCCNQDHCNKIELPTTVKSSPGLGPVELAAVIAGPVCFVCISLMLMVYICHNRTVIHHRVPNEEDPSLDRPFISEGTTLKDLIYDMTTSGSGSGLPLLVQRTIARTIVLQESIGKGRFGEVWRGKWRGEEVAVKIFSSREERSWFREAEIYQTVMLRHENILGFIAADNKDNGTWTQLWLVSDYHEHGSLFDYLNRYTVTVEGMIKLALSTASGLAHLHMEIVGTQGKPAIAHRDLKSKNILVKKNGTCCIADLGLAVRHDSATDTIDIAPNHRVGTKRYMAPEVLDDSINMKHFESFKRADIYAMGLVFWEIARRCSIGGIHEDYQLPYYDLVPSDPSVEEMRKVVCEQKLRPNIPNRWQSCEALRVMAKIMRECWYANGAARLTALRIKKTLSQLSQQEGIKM"}, "TGFBR2": {"molecular_target": "T41, TGFBR2 (Homo sapiens, UniProt P37173)", "T41 construct": "purchased DiscoveRx KINOMEscan", "T41 sequence (P37173 23-567)": "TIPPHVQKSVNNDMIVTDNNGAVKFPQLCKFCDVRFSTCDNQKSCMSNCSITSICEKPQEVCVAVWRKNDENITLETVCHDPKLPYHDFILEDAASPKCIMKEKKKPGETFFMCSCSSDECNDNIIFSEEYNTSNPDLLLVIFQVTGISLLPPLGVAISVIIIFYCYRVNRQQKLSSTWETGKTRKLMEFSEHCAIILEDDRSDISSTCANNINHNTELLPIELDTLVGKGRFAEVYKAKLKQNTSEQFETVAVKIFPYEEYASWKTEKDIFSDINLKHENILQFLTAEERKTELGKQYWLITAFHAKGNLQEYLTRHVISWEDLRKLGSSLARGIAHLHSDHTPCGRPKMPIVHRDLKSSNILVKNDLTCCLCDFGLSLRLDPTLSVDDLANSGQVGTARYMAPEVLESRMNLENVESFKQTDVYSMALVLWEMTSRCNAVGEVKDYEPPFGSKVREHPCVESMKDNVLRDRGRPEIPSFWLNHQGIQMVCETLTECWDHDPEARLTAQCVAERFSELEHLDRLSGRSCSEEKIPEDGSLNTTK"}, "TRKB": {"molecular_target": "T42, TRKB (Homo sapiens, UniProt Q16620)", "T42 construct": "purchased DiscoveRx KINOMEscan"}, "TSSK1B": {"molecular_target": "T43, TSSK1B (Homo sapiens, UniProt Q9BXA7)", "T43 construct": "purchased DiscoveRx KINOMEscan"}, "WNK1": {"molecular_target": "T44, WNK1 (Homo sapiens, UniProt Q9H4A3)", "T44 construct": "purchased DiscoveRx KINOMEscan"}}, "data": [{"smiles": "CCN(C(=O)CO)[C@H]1CN(/C(=N\\C#N)Nc2cccc(OC(F)F)c2)N=C1c1ccc(Cl)c(Cl)c1", "note": "[(S)-4]", "values": [{"measurement": "remaining binding at 1 µM", "setting": "[1]", "value": 100, "unit": "%"}, {"measurement": "remaining binding at 1 µM", "setting": "AMPK-alpha1", "value": 68, "unit": "%"}, {"measurement": "remaining binding at 1 µM", "setting": "ASK1", "value": 88, "unit": "%"}, {"measurement": "remaining binding at 1 µM", "setting": "BRAF", "value": 100, "unit": "%"}, {"measurement": "remaining binding at 1 µM", "setting": "BRSK2", "value": 74, "unit": "%"}, {"measurement": "remaining binding at 1 µM", "setting": "CDC2L1", "value": 97, "unit": "%"}, {"measurement": "remaining binding at 1 µM", "setting": "CDKL5", "value": 100, "unit": "%"}, {"measurement": "remaining binding at 1 µM", "setting": "CIT", "value": 63, "unit": "%"}, {"measurement": "remaining binding at 1 µM", "setting": "CLK3", "value": 94, "unit": "%"}, {"measurement": "remaining binding at 1 µM", "setting": "CSNK2A2", "value": 56, "unit": "%"}, {"measurement": "remaining binding at 1 µM", "setting": "DAPK3", "value": 94, "unit": "%"}, {"measurement": "remaining binding at 1 µM", "setting": "DYRK1A", "value": 100, "unit": "%"}, {"measurement": "remaining binding at 1 µM", "setting": "EGFR(L858R)", "value": 91, "unit": "%"}, {"measurement": "remaining binding at 1 µM", "setting": "EGFR(S752-I759del)", "value": 100, "unit": "%"}, {"measurement": "remaining binding at 1 µM", "setting": "EIF2AK1", "value": 100, "unit": "%"}, {"measurement": "remaining binding at 1 µM", "setting": "EPHA1", "value": 86, "unit": "%"}, {"measurement": "remaining binding at 1 µM", "setting": "FER", "value": 68, "unit": "%"}, {"measurement": "remaining binding at 1 µM", "setting": "HIPK2", "value": 100, "unit": "%"}, {"measurement": "remaining binding at 1 µM", "setting": "IKK-alpha", "value": 92, "unit": "%"}, {"measurement": "remaining binding at 1 µM", "setting": "IKK-beta", "value": 100, "unit": "%"}, {"measurement": "remaining binding at 1 µM", "setting": "IKK-epsilon", "value": 99, "unit": "%"}, {"measurement": "remaining binding at 1 µM", "setting": "KIT(D816V)", "value": 86, "unit": "%"}, {"measurement": "remaining binding at 1 µM", "setting": "KIT-autoinhibited", "value": 90, "unit": "%"}, {"measurement": "remaining binding at 1 µM", "setting": "LRRK2", "value": 100, "unit": "%"}, {"measurement": "remaining binding at 1 µM", "setting": "MAP4K2", "value": 96, "unit": "%"}, {"measurement": "remaining binding at 1 µM", "setting": "MAP4K4", "value": 100, "unit": "%"}, {"measurement": "remaining binding at 1 µM", "setting": "MKK7", "value": 99, "unit": "%"}, {"measurement": "remaining binding at 1 µM", "setting": "MKNK1", "value": 100, "unit": "%"}, {"measurement": "remaining binding at 1 µM", "setting": "MST2", "value": 88, "unit": "%"}, {"measurement": "remaining binding at 1 µM", "setting": "MTOR", "value": 100, "unit": "%"}, {"measurement": "remaining binding at 1 µM", "setting": "NDR2", "value": 76, "unit": "%"}, {"measurement": "remaining binding at 1 µM", "setting": "PDGFRA", "value": 100, "unit": "%"}, {"measurement": "remaining binding at 1 µM", "setting": "PIK3CA(E542K)", "value": 92, "unit": "%"}, {"measurement": "remaining binding at 1 µM", "setting": "PIK3CD", "value": 81, "unit": "%"}, {"measurement": "remaining binding at 1 µM", "setting": "PIM1", "value": 82, "unit": "%"}, {"measurement": "remaining binding at 1 µM", "setting": "PIP5K2C", "value": 85, "unit": "%"}, {"measurement": "remaining binding at 1 µM", "setting": "ROCK1", "value": 98, "unit": "%"}, {"measurement": "remaining binding at 1 µM", "setting": "ROCK2", "value": 95, "unit": "%"}, {"measurement": "remaining binding at 1 µM", "setting": "SGK2", "value": 100, "unit": "%"}, {"measurement": "remaining binding at 1 µM", "setting": "TGFBR1", "value": 100, "unit": "%"}, {"measurement": "remaining binding at 1 µM", "setting": "TGFBR2", "value": 59, "unit": "%"}, {"measurement": "remaining binding at 1 µM", "setting": "TRKB", "value": 100, "unit": "%"}, {"measurement": "remaining binding at 1 µM", "setting": "TSSK1B", "value": 79, "unit": "%"}, {"measurement": "remaining binding at 1 µM", "setting": "WNK1", "value": 100, "unit": "%"}]}]}
